Laboratory results as given in patent EP1914230B1 (The Arizona Board of Regents on behalf of the University of …, priority 2001, dated 2003).

Columns and labels:
[1] = biological target: phosphatidylinositol-3-kinase; assay: PI-3 kinase inhibition; assay type: biochemical
Source text: (§1) Highlighted are the compounds being made for antitumor testing.

C57BL6 mice = conditions: relative to wortmannin as 1.0; for Lymphocyte toxicity relative to wortmannin: percent decrease in lymphocyte counts at the MTD or highest dose tested; for Liver toxicity relative to wortmannic: mean percent increase in serum ALT and AST at the MTD or highest dose tested
Source text: as §1

Work on COC[C@H]1OC(=O)c2coc3c2[C@@]1(C)C1=C(C3=O)[C@@H]2CCC(=O)[C@@]2(C)C[C@H]1OC(C)=O [wortmannin] yielded an IC50 [1] of 0.3 nM.
COC[C@H]1OC(=O)/C(=C/NCC(N)=O)C2=C(O)C(=O)C3=C([C@H](OC(C)=O)C[C@]4(C)C(=O)CC[C@@H]34)[C@]21C [DJM2-190] was tested, and the “Lymphocyte toxicity relative to wortmannin” value (C57BL6 mice) was 0.6.
For COC[C@H]1OC(=O)/C(=C/SCc2ccccc2)C2=C(O)C(=O)C3=C([C@H](OC(C)=O)C[C@]4(C)C(=O)CC[C@@H]34)[C@]21C [DJM2-170], the “Liver toxicity relative to wortmannic” value (C57BL6 mice) was 1.7 and the “Lymphocyte toxicity relative to wortmannin” value (C57BL6 mice) was 1.1.
COC[C@H]1OC(=O)/C(=C/NC(C)C(=O)O)C2=C(O)C(=O)C3=C([C@H](OC(C)=O)C[C@]4(C)C(=O)CC[C@@H]34)[C@]21C (stereo partly drawn) [DJM2-177] was tested, and the “Liver toxicity relative to wortmannic” value (C57BL6 mice) was 0.2 and the “Lymphocyte toxicity relative to wortmannin” value (C57BL6 mice) was 2.0.
